“Also recorded” adds a separate entry of the source.
Tests used:
[1] = tested on: Lung Cancer; conditions: lung cancer treatment; cited from earlier work
[2] = tested on: lung, liver, kidney tissues; assay: Histology (H-E, light microscope) of lung, liver, kidney tissues of tumour developed nude rats; assay type: in vivo; conditions: for Histopathological damage in lung, liver and kidney tissues (overall): rat, in vivo
From the text: After […] operation; lung, liver, kidney tissues were taken and 10% were fixed in formaldehyde, and the sections prepared after their histological tissue follow-up procedures were examined with a light microscope.

## N.N.[Cl][Pt][Cl] [Cisplatin, cis-diamminedichloroplatinum II]
[1]
  surviving: 6 months
[2]; H-E sections
  Kidney histology: narrowing in glomerular Bowman's space (arrow), tubule epithelial damage; also recorded: Glomerular collapse and vascular congestion
  Liver histology: hemorage (aster) in parenchymal area, vascular congestion; also recorded: hemorrhagic fields and vascular congestion in parenchyma
  Lung histology: Secretion (aster) in bronchiole lumen, vascular congestion; also recorded: Secretion accumulations and vascular congestion
[2]
  Histopathological damage in lung, liver and kidney tissues (overall): caused tissue damages
[2]; listed as cisplatin
  Histopathological damage in lung, liver and kidney tissues (overall): causes histopathological damages in lung, liver and kidney tissues
